Experimental data: patent publication US9556183B2, “Substituted pyrazolylpyrazole derivative and use of same as herbicide” (KYOYU AGRI CO., LTD., priority 2013, dated 2017)

Experiments:
Format in all cases: in vivo
Echinochloa crus-galli = assay: Paddy herbicidal activity test; settings: irrigated paddy pot, treated at 3.5 leaf stage of Echinochloa crus-galli, 30 days
Method: (§1) Rice paddy soil was filled into a 1/10000 are pot followed by the addition of suitable amounts of water and chemical fertilizer, kneading, seeding with Echinochloa crus-galli, Monochoria vaginalis and Scirpus juncoides and maintaining in an irrigated state at a water depth of 3 cm. Wettable powder of Target Compound (I) shown in Table 1 prepared in compliance with the preparation examples were diluted with a suitable amount of water, rice plants in the 2.0 leaf stage were transplanted during 3.5 leaf stage of Echinochloa crus-galli, and treated by dropping in chemical in the prescribed amount per are using a pipette. After treating for 30 days in a glass greenhouse at an average atmospheric temperature of 30° C., the herbicidal efficacy thereof was investigated. Evaluation of herbicidal efficacy was carried out by comparing growth inhibition rate (%) with an untreated group, while evaluation of phytotoxicity was carried out by comparing growth inhibition rate (%) with the state of a complete eradication group, and were evaluated at 11 levels indicated below. [table]

Monochoria vaginalis = assay: Paddy herbicidal activity test; settings: irrigated paddy pot, 30 days
Method: as §1

Scirpus juncoides = assay: Paddy herbicidal activity test; settings: irrigated paddy pot, 30 days
Method: as §1

Rice plants = assay: Paddy herbicidal activity test, phytotoxicity to transplanted rice; settings: rice transplanted at 2.0 leaf stage, 30 days
Method: as §1

Amaranthus retroflexus [1] = assay: Farming soil treatment test; settings: soil surface spray prior to weed growth, 30 days
Method: (§2) Evaluation of herbicidal efficacy was carried out by comparing growth inhibition rate (%) with an untreated group, while evaluation of phytotoxicity was carried out by comparing growth inhibition rate (%) with the state of a complete eradication group, and were evaluated at 11 levels indicated below. [table] Field soil was filled into a 1/6000 are pot followed by seeding with Digitaria ciliaris, Chenopodium album and Amaranthus retroflexus and covering with soil. Wettable powder of compounds of formula (I) shown in Table 1 prepared in compliance with the preparation examples were diluted with water to the prescribed amount of chemical and uniformly sprayed onto each soil surface layer using 10 liters of sprayed water per are prior to weed growth following seeding. After treating for 30 days in a glass greenhouse at an average atmospheric temperature of 30° C., the herbicidal efficacy thereof was investigated. Evaluation of herbicidal efficacy was carried out in the same manner as the above-mentioned Test Example 1.

Chenopodium album [2] = assay: Farming soil treatment test; settings: soil surface spray prior to weed growth, 30 days
Method: as §2

Digitaria ciliaris [3] = assay: Farming soil treatment test; settings: soil surface spray prior to weed growth, 30 days
Method: as §2

Amaranthus retroflexus [4] = assay: Weed foliar treatment test; settings: foliar spray, 3 weeks
Method: (§3) Evaluation of herbicidal efficacy was carried out by comparing growth inhibition rate (%) with an untreated group, while evaluation of phytotoxicity was carried out by comparing growth inhibition rate (%) with the state of a complete eradication group, and were evaluated at 11 levels indicated below. [table] Soil was filled into a 1/6000 are pot followed by seeding with Digitaria ciliaris, Chenopodium album and Amaranthus retroflexus, covering with soil, and cultivating in a glass greenhouse at an average atmospheric temperature of 25° C. Wettable powder of Target Compound (I) shown in Table 1 prepared in compliance with the preparation examples were diluted with water to the prescribed amount of chemical and uniformly sprayed onto the weeds using 15 liters of sprayed water per are when Digitaria ciliaris had grown to the 1.0 to 2.0 leaf stage. After treating for 3 weeks in a glass greenhouse at an average atmospheric temperature of 25° C., the herbicidal efficacy thereof was investigated, Evaluation of herbicidal efficacy was carried out in the same manner as the above-mentioned Test Example 1.

Chenopodium album [5] = assay: Weed foliar treatment test; settings: foliar spray, 3 weeks
Method: as §3

Digitaria ciliaris [6] = assay: Weed foliar treatment test; settings: foliar spray at 1.0 to 2.0 leaf stage of Digitaria ciliaris, 3 weeks
Method: as §3

Row | SMILES | herbicidal efficacy (growth inhibition rate level) Echinochloa crus-galli (Echinochloa crus-galli; 1g a.i./10a) | herbicidal efficacy (growth inhibition rate level) Echinochloa crus-galli (Echinochloa crus-galli; 5g a.i./10a) | herbicidal efficacy (growth inhibition rate level) Monochoria vaginalis (Monochoria vaginalis; 1g a.i./10a) | herbicidal efficacy (growth inhibition rate level) Monochoria vaginalis (Monochoria vaginalis; 5g a.i./10a) | herbicidal efficacy (growth inhibition rate level) Scirpus juncoides (Scirpus juncoides; 1g a.i./10a) | herbicidal efficacy (growth inhibition rate level) Scirpus juncoides (Scirpus juncoides; 5g a.i./10a) | phytotoxicity (growth inhibition rate level) Rice plants (Rice plants; 1g a.i./10a) | phytotoxicity (growth inhibition rate level) Rice plants (Rice plants; 5g a.i./10a) | herbicidal efficacy (growth inhibition rate level) Amaranthus retroflexus (Amaranthus retroflexus [1]; 5g a.i./10a) | herbicidal efficacy (growth inhibition rate level) Amaranthus retroflexus (Amaranthus retroflexus [1]; 10g a.i./10a) | herbicidal efficacy (growth inhibition rate level) Chenopodium album (Chenopodium album [2]; 5g a.i./10a) | herbicidal efficacy (growth inhibition rate level) Chenopodium album (Chenopodium album [2]; 10g a.i./10a) | herbicidal efficacy (growth inhibition rate level) Digitaria ciliaris (Digitaria ciliaris [3]; 5g a.i./10a) | herbicidal efficacy (growth inhibition rate level) Digitaria ciliaris (Digitaria ciliaris [3]; 10g a.i./10a) | herbicidal efficacy (growth inhibition rate level) Amaranthus retroflexus (Amaranthus retroflexus [4]; 5g a.i./10a) | herbicidal efficacy (growth inhibition rate level) Amaranthus retroflexus (Amaranthus retroflexus [4]; 10g a.i./10a) | herbicidal efficacy (growth inhibition rate level) Chenopodium album (Chenopodium album [5]; 5g a.i./10a) | herbicidal efficacy (growth inhibition rate level) Chenopodium album (Chenopodium album [5]; 10g a.i./10a) | herbicidal efficacy (growth inhibition rate level) Digitaria ciliaris (Digitaria ciliaris [6]; 5g a.i./10a) | herbicidal efficacy (growth inhibition rate level) Digitaria ciliaris (Digitaria ciliaris [6]; 10g a.i./10a)
1 | CC1CC1CNc1c(C#N)cnn1-c1nn2c(c1Cl)CCCC2 (stereo not shown) [Compound 12] | 9 (9: 90% to less than 100%) | 10 (10: 100%) | 8 (8: 80% to less than 90%) | 9 (9: 90% to less than 100%) | 9 (9: 90% to less than 100%) | 9 (9: 90% to less than 100%) | 0 (0 (exponent): 0% to less than 10% (growth inhibition rate)) | 1 (1: 10% to less than 20%) | 10 (10: 100%) | 10 (10: 100%) | 10 (10: 100%) | 10 (10: 100%) | 10 (10: 100%) | 10 (10: 100%) | 10 (10: 100%) | 10 (10: 100%) | 10 (10: 100%) | 10 (10: 100%) | 10 (10: 100%) | 10 (10: 100%)
2 | N#Cc1cnn(-c2nn3c(c2Br)CCCC3)c1NCC1CC1 [Compound 147] | 8 (8: 80% to less than 90%) | 9 (9: 90% to less than 100%) | 7 (7: 70% to less than 80%) | 8 (8: 80% to less than 90%) | 7 (7: 70% to less than 80%) | 9 (9: 90% to less than 100%) | 0 (0 (exponent): 0% to less than 10% (growth inhibition rate)) | 0 (0 (exponent): 0% to less than 10% (growth inhibition rate)) | 10 (10: 100%) | 10 (10: 100%) | 10 (10: 100%) | 10 (10: 100%) | 10 (10: 100%) | 10 (10: 100%) | 10 (10: 100%) | 10 (10: 100%) | 10 (10: 100%) | 10 (10: 100%) | 10 (10: 100%) | 10 (10: 100%)
